The structures appear in SMILES notation.

For the compound `O=C1N[C@H](Cc2ccc(C(F)(F)F)cc2)[C@H](c2cccc3ccccc23)O1` (racemic), the melting point was in the range of 202 to 203 °C.
On to `COc1ccc(Nc2ccc(OC)c3ccccc23)cc1C(=O)O`, for which the melting point lay in the range of 153 to 154 °C.
Turning to `Cc1nc(=O)[nH]c2ccc(N(C)C)cc12`, the melting point lay within 278 to 281 °C.
The figure for `N#CC1=CCCc2ccc(Br)cc21` is 113 to 115 °C.
The figure for `CC(=O)Oc1ccc2c(c1)CCC1C2CCC2(C)C(OC(C)=O)CCC12` (stereo unspecified) is 128 to 129 °C; for `CCOC(=O)c1cn2c(cc(Cl)c3ccc(Br)cc32)n1` it is 206 to 207 °C; for `O=C1C2C3COC2(C3)c2cccnc2N1c1ccccc1` (stereo unspecified) it is 198 to 200 °C.
The value for `O=C(O)c1ccc2oc([N+](=O)[O-])c(-c3ccccc3)c2c1` was 271 to 273 °C.
`CCOC(=O)C(C#N)=CC=CN(C)C` came in with a melting point of 134 to 135 °C.
The figure for `Nc1nc(N)nc(N2CCOCC2)n1` is 248 to 250 °C; for `COc1cc2[nH]c(N(C)Cc3cccc(C4=NCCN4C)c3)nc(=O)c2c(C)c1OC` it is 145 to 148 °C.
The value for `CC(=O)OCCN1C2=NCCN2C(=O)c2ccccc21` was 124 to 126 °C.
The value for `CCOC(=O)C1(O)C=CC(N=Nc2ccccc2)=CC1` (stereo unspecified) was 153 to 154 °C; that for `CCCCCCCCc1ccc(C(O)C(=O)c2ccccc2)cc1` (stereo unspecified) was 85 to 89 °C; that for `Cc1cccc(-c2nc3ccc(N(C)C)nn3c2-c2ccnc(NC3CCCCC3)c2)c1` was 191 to 192 °C.
On to `N=C(N)Nc1nc(C(=O)NCC(=O)NC(CC(=O)O)c2cccnc2)cs1` (racemic), for which the melting point worked out at 186 °C.
For the compound `Nc1ncc(-c2noc(-c3cnn4c(C(F)(F)F)cc(-c5ccc(Cl)c(Cl)c5)nc34)n2)cn1`, the melting point was determined as 300 °C.
`COc1cc(C=Cc2nc3c(c(=O)n(C)c(=O)n3C)n2C)cc(OC)c1` registered a melting point of 228 to 230 °C.
The figure for `COc1ccccc1CNc1cc(C(=O)Nc2ccccc2)ccc1OC` is 177 to 179 °C; for `CCc1nnc(-c2ccc(OC)cc2)n1-c1ccccc1C` it is 118 °C.
The value for `Cn1ccnc1S(=O)(=O)C(C)(Cc1ccc(-c2ccccc2)cc1)C(=O)NO` (stereo unspecified) was 112 °C; that for `CCc1ccc(N(Cc2ccc(N(C)C)cc2)C(=O)C2CCCc3ccccc32)cc1` (stereo unspecified) was 109 to 110 °C; that for `CCOc1ccc(OCC)c(C[C@@H](C(=O)[C@H](Cc2cc(OCC)ccc2OCC)N2C(=O)c3ccccc3C2=O)N2C(=O)c3ccccc3C2=O)c1` was 92 to 93 °C.
The value for `Cc1ccc(S(=O)(=O)OCC2Cc3cc(Cl)cc(-c4cccc(Cl)c4)c3O2)cc1` (stereo unspecified) was 80 to 82 °C.
Consider `N#CCN1CCC(Nc2nc3ccccc3n2Cc2ccc(CO)o2)CC1`, for which the melting point was determined as 210 °C.
In turn, `COc1ccc(-c2cc(C=O)cc3ccoc23)cc1` yielded a melting point of 79 to 80 °C.
The value for `CC1(C)COc2ccc(C[C@@H](NC(=O)c3ccc(F)c4ccccc34)[C@@H](O)c3cccc(Cl)c3)cc21` (racemic) was 131 to 133 °C.
The figure for `Cc1nn(C)c2c(O)nc(C3CC3)nc12` is 238 to 240 °C; for `C#C[C@]1(OC(C)=O)CC[C@H]2[C@@H]3CC(=C)C4=CC(=O)CC[C@@H]4[C@H]3CC[C@@]21C` it is 157 °C.
Take `Cc1c(C=CCN2CCOCC2)[nH]c(=O)c2c1ccc1nc(Nc3c(Cl)cccc3Cl)n(C)c12`: the melting point lay in the range of 175 to 177 °C.
The value for `COCCOc1cc(Cc2cnc(N)nc2N)cc2cccnc12` was 253 to 255 °C.
The figure for `CCOC(=O)NC(=O)C(c1ccccc1)c1ccccc1` is 133 °C; for `CC1(C)CCc2[nH]cc(C(=O)Nc3ccc4c(c3)OCO4)c2C1=O` it is 251 to 252 °C; for `c1ccc2c(c1)N=C(C1CCCCC1)c1cccc3c1N2CC3` it is 104 to 106 °C.
The value for `CN1CCN(Cc2nnc(-c3ccccc3)cc2-c2cccc([N+](=O)[O-])c2)CC1` was 157 to 159 °C; that for `CCN1CCCC(c2ccc(OC)c(OC)c2)C1` (stereo unspecified) was 50 °C.
As to `Cc1ncccc1Cn1nnnc1-c1cc(Cl)ccc1Cl`, the melting point was 172 to 174 °C.
Consider `Nc1n[nH]cc1C(=O)c1ccco1`, for which the melting point was 153 to 155 °C.
For `CC(=O)N1CCc2ccc(SCc3ccccc3)c([N+](=O)[O-])c2C1`, the melting point was in the range of 94 to 95 °C.
In turn, `Nc1ccc(Oc2cccc3ccccc23)nc1` showed a melting point of 82.2 to 83.7 °C.
The value for `CN1CCN(c2cccc3ccc(-c4cccc(NS(C)(=O)=O)c4)cc23)CC1` was 100 to 101 °C; that for `CCCCCCc1cc2c(s1)-n1c(C)nnc1CN=C2c1cccc(C)c1` was 57 to 59 °C; that for `COc1cccc(C(=O)Nc2nc(-c3cccc(C#N)c3)c(-c3ccncn3)s2)c1` was 255 to 256 °C.
The figure for `O=C(c1cc2cc3[nH]c(=O)oc3cc2[nH]1)N1CCC(Cc2ccc(F)cc2)CC1` is 244 to 247 °C; for `COC(=O)c1ccc(C)c(-n2c(C)cc(OCc3ccc(F)cc3CNC(=O)Nc3cc(C(C)(C)C)nn3-c3ccc(O)cc3)c(Cl)c2=O)c1` it is 188 to 190 °C.
The figure for `COc1ccc2oc(=O)c(-c3ccccc3)c(OCCN3CCOCC3)c2c1` is 118 °C; for `COc1ccnc(CCc2nc3cc(Br)cnc3[nH]2)c1` it is 207 to 209 °C.
Turning to `COc1cc(C(=O)Nc2c(C)cc3cn[nH]c3c2C(=O)NC2(C3CC3)CC2)n(-c2ncccc2Cl)n1`, the melting point is 150 to 154 °C.
The figure for `COc1cc(-c2nc(-n3c(C)ccc3C)sc2SCC2CCCC2)c(OC)cc1C` is 108 °C.
`NCC(C(=O)O)c1c[nH]c2ccc(F)cc12` (stereo unspecified) came in with a melting point of 244 to 245 °C.
The value for `CC(C)n1c(C(F)(F)F)cnc1-c1ccc(O)cc1` was 249 to 250 °C; that for `CC(C)Sc1cc2c(cc1Cl)N=C(CCl)NS2(=O)=O` was 248 to 250 °C; that for `CC(=NNc1ccc(C2=NNC(=O)CC2C)cc1)c1cnsn1` (stereo unspecified) was 241 to 245 °C.
Turning to `CCCNC(=O)N=c1ccn(-c2ccccc2)nc1`, the melting point fell in the range of 156 to 157 °C.
The figure for `N#Cc1ccnc(OCc2nc3cc(Cl)ccc3s2)c1` is 224 to 227 °C; for `C(=C\c1nc(COc2ccc(CCCCCn3cncn3)cc2)co1)/c1ccccc1` it is 103 to 104 °C; for `Cc1nc2c(C)cccn2c1C1=NNC(=O)CO1` it is 310 to 313 °C.
The value for `CCc1c(O)n[nH]c1C` was 232 to 234 °C; that for `CC(C)On1nnc2ccc(Cn3ccnc3)cc21` was 114 °C; that for `CC(C)(C)Sc1cnn(-c2c(Cl)cc(C(F)(F)F)cc2Cl)c1N` was 129 °C.
The figure for `Cc1nc(C(N)=O)n(COCc2ccccc2)c1Sc1ccccc1` is 153 to 154 °C; for `COC(=O)c1ccc(CN2CCCc3cc4c(cc32)C(C)(C)CCC4(C)C)cc1` it is 173 to 175 °C.
As for `CC(C)c1[nH]n(-c2c(Cl)cc(Cl)cc2Cl)c2nc(Cc3ccc(NC(=O)OCCCN(C)C)cc3)nc(=O)c1-2`, the melting point lay within 200 to 202 °C.
The value for `CN(C(=O)C(C)(C)N1C(=O)c2ccccc2C1=O)C(c1ccc(F)cc1)c1ccc(F)cc1` was 169 to 171 °C; that for `Cc1cc(NCC(C)C)c2[nH]nc(-c3ccccc3)c2n1` was 187 to 190 °C.
The figure for `O=P(O)(O)c1cccc(OCc2ccc3ccccc3c2)c1` is 131 to 134 °C; for `CCCOc1cc(CCCC2OC(=O)NC2=O)ccc1OCc1nc(-c2ccccc2)oc1C` (stereo unspecified) it is 119 to 120 °C; for `Brc1ccc2[nH]cc(C3=CCNCC3)c2c1` it is 202 to 204 °C.
The figure for `O=S1(=O)c2cccc3cccc(c23)N1CCCN1CC=C(c2c[nH]c3ccc(O)cc23)CC1` is 214 °C; for `Cc1cc2c(cc1C)CC(=O)NC=C2` it is 220 to 224 °C.
In turn, `O=C1CSC(N2CCN=C(c3ccccc3Cl)c3cc(Cl)ccc32)=N1` returned a melting point of 217 to 218 °C.
The value for `Nc1ccc(N2CCc3ccncc3C2)cc1` was greater than 220 °C.
In the case of `CCOC(=O)/C=C/c1nc(COc2ccc(CCl)cc2OC)c(C)o1`, the melting point lay within 107 to 108 °C.
The value for `COc1ccc(-c2[nH]nc3c2C(=O)c2c(NC(=O)NNC(=O)c4ccc(O)cc4)cccc2-3)cc1` was 283 °C.
The figure for `CNN(C)C(=S)Nc1ccc(Cl)cc1` is 103 to 104 °C; for `Cc1ccc(C)n1Nc1ccc(Cl)nn1` it is 173 to 175 °C; for `COC(=O)c1coc(-c2ccc(NS(=O)(=O)c3sc4ccc(F)cc4c3C)c(S(C)(=O)=O)c2)n1` it is 290 to 292 °C.
The figure for `CN1Cc2cc(Br)cnc2N(C)C1=O` is 119 to 120 °C.
The compound `COc1ccc(Sc2ccccc2CC(=O)O)cc1` registered a melting point of 102 to 105 °C.
The value for `N#CC1=C(c2ccccc2)Nc2n[nH]cc2C1c1ccccc1Cl` (stereo unspecified) was 158 °C.
The value for `Cc1ccc(S(=O)(=O)Nc2ccc3[nH]c(=O)c4ccccc4c3c2)cc1` was 199 to 203 °C; that for `N#Cc1sc(N)c(C#N)c1N1CCCCC1` was 183 to 184 °C.
The figure for `CNc1cccc(Cl)n1` is 63.5 to 64.5 °C.
For `CCCNC(=O)c1nc(-c2ccccc2)c(-c2ccc(=O)n(CCC)n2)s1`, the melting point lay in the range of 121 to 122 °C.
Consider `CCOC(=O)CC(=O)COCC1=C(C(=O)OCC)C(c2cccc(Cl)c2Cl)C(C(=O)OC)=C(C)N1` (stereo unspecified), for which the melting point fell in the range of 99 to 102 °C.
The value for `CC1Oc2cc(F)ccc2NC1=O` (stereo unspecified) was 166 to 168 °C; that for `CCCc1ccc2c(c1)C(=O)N(c1ccc(C(C)C(=O)OC(C)(C)C)cc1)C2` (stereo unspecified) was 110 to 115 °C; that for `Cc1ccc(-c2csc(/C=C/C(=O)O)c2)cc1` was 206 to 207 °C.
The figure for `CNC(=S)NCCN1CCCCC1` is 166 °C; for `COc1cc(C)c(C=CC(C)=CC=CC(C)=CCO)c(C)c1C` it is 128 to 130 °C.
The figure for `COc1cc2c(cc1OCc1ccccc1)CCCC(C(=O)O)=C2` is 163 to 165 °C.

For the origin of these results see a melting point compilation (Tetko et al.; mined from patent text by program, amines drawn as free bases though some values may be those of a salt).
